Patent US20170298055A1, “sGC STIMULATORS” (IRONWOOD PHARMACEUTICALS, INC., priority 2014, published 2017)

Assays:
obese mice = conditions: cited from earlier work
[1] = tested on: Guinea pig tracheal smooth muscle; assay: Electrical field stimulated guinea pig tracheal smooth muscle contraction (ex vivo); conditions: sub-maximal EFS, cumulative dose response curve, three animals pooled; read-out: IC50, inhibition of EFS-induced tracheal smooth muscle contraction
From the text: On each experimental day, a guinea pig is killed by exposure to a rising concentration of CO2 and the trachea removed. The trachea is cleaned of extraneous tissue and cut open longitudinally in a line opposite the muscle, opened out and cut into strips 2-3 cartilage rings wide. A cotton loop is attached to one end of each tracheal strip and a length of cotton to the other end. Tracheal strips are then suspended between two platinum electrodes, using tissue holders, in a Myobath system (World Precision Instruments Stevenage, UK). […] Tissues are washed with Kreb's buffer and stimulated using the previously determined sub-maximal voltage for 1 hour to establish a stable baseline contraction prior to assessment of compound activity.
A cumulative dose response curve (DRC) to each test substance is then performed and changes in smooth muscle contraction measured. The effect of each test substance in each experiment is expressed as a percentage inhibition of the baseline contraction, normalized to the relevant vehicle controls. […] The data from all three experiments are pooled, the DRC plotted, and the test substance potency and efficacy determined.

NO-deficient rats = conditions: cited from earlier work

## O=C(O)CCCCN(CCc1cc(F)ccc1OCc1ccc(-c2ccc(C(F)(F)F)cc2)cc1)Cc1ccc(C(=O)O)cc1 [BAY 60-2770]
Obese mice
  effect on overactive bladder: ameliorates overactive bladder in obese mice

## CC(C)[N+]1(C)[C@@H]2CC[C@H]1CC(OC(=O)C(CO)c1ccccc1)C2 (stereo partly drawn) [Ipratropium bromide]
[1]
  IC50: 0.86 nM

## Nc1nc(-c2nn(Cc3ccccc3F)c3ncccc23)ncc1C1CC1 [BAY-2272]
NO-deficient rats
  effect on bladder dysfunction: protective effects
